Measurements from paper PMC12447640, “Design, synthesis, and biological assessment of a novel series of coumarin-tethered thiazole derivatives as potential antibacterial agents” (Frontiers in Chemistry, 2025).

Molecular target: T1, DNA gyrase B (E. coli DNA gyrase, supercoiling) (Escherichia coli, UniProt P0AES6)
T1 construct: gene gyrB; with DNA gyrase subunit A (GyrA)
Experiment: E. coli DNA gyrase supercoiling microplate assay kit (Inspiralis)
Assay type: biochemical

SMILES	IC50
CC(=NNc1nc(C)c(N=Nc2ccccc2)s1)c1cc2ccc(O)cc2oc1=O [6a, 7-Hydroxy-3-(-1-{2-[4-methyl-5-(phenyldiazenyl)thiazol-2-yl]hydrazono}ethyl)-2H-chromen-2-one]	56.6 µM
CC(=NNc1nc(C)c(N=Nc2ccc(F)cc2)s1)c1cc2ccc(O)cc2oc1=O [6c, 3-(-1-{2-[5-((4-fluorophenyl)diazenyl)-4-methylthiazol-2-yl]hydrazono}ethyl)-7-hydroxy-2H-chromen-2-one]	93.4 µM
